From patent US12310967B2, “Compositions and methods of treatment for neurological disorders comprising motor neuron diseases” (Gliapharm SA, priority 2017, dated 2025)
Read-outs that look alike come from different tables or passages of the source.

Test system: primary astrocytes
Experiment: Extracellular lactate quantification
Format: cell-based, mouse
Details: Appendix II; for Score Lact.: CDC54K library; for EC50: lactate secretion, read-out: EC50
Method: Secretion of L-lactate was determined in the extracellular medium of 96-well plated astrocytes after 90 min stimulation (at 37° C., in 5% CO2/95% air conditions) with the drug of interest. The stimulation medium was composed of D5030 medium (completed with D-glucose 5 mM and 44 mM sodium bicarbonate) for 90 min in concentrations ranging from 0 to 100 μM.
Briefly, 200 μl of a Glycine (Sigma)-Semicarbazide (Acros) 0.2M pH 10 buffer containing 3 mM NAD (Roche) and LDH 14 U/ml (Roche) was added to each well of a 96-well plate containing 30 μl aliquots complemented with 20 μl fresh complete D5030 medium. Samples were incubated at 37° C. for 1 h. After samples cooled down at room temperature, the fluorescence intensity (340 nm excitation/450 nm emission) that represents the amount of NADH produced was measured, and lactate concentration values were determined from a standard curve of L-lactate.
Statistical analysis consisted in ANOVA followed by Fisher LSD post-hoc test for pair-wise comparisons.
Levels of lactate secreted by astrocytes were measured in the extracellular medium at 90 min after stimulation with hits (molecules) from the CDC54K library.

| Structure (SMILES) | Score Lact. | EC50 (Mus musculus, Astrocyte) [µM] | EC50 [µM] |
| --- | --- | --- | --- |
| CC(=O)N1CC(C)(C)c2cc(S(=O)(=O)Nc3ccc(I)cc3C)ccc21 [L302-0181] | 0.52 | 5.05 | – |
| CCc1ccc(NC(=O)Cc2cn(C)c3ncccc23)cc1 [M508-0370] | 0.60 | – | – |
| C1=C(c2ccccc2)c2c(ncnc2NCCN2CCOCC2)C1.O=C(O)C(=O)O.O=C(O)C(=O)O [T0513-0213] | 0.30 | 3.99 | – |
| CC(=O)N1CCc2cc(S(=O)(=O)NCC(C)c3ccccc3)ccc21 (centres unmarked) [T5707230] | 0.67 | – | 4.88 |
| C1=Cc2ncnc(NCc3ccccc3CN3CCOCC3)c2C1 [T5790476] | 0.79 | 3.98 | – |
| CC(C)(C)c1cccc(CNc2ncnc3[nH]ncc23)c1 [F5285-0069] | 0.36 | 6.29 | – |
| O=c1[nH]nc(SCCOc2ccc(Br)cc2)n1C1CC1 [T533260] | 0.53 | 6.84 | – |
| CCNc1cc(C)nc(Nc2ccc(NC(=O)Cc3ccccc3)cc2)n1 [G869-0064] | 0.54 | – | – |
| CCCC(=O)NC1=NC(c2ccc3c(c2)CCO3)=CC1 [T5691896] | 0.38 | 5.21 | – |
| COc1ccc(CCNc2ncnc3c2cnn3C)cc1 [K405-2595] | 0.70 | – | – |
| C1CCCC(NC2=NCCCNC23CCCCC3)CC1 [Z076-0028] | 0.56 | – | – |
| CCc1ccc(S(=O)(=O)Nc2c(C)nn(C)c2C)cc1 [T5753165] | 0.54 | – | – |
| Br.CCOc1ccc(C2(O)C(C)C3=C(CCN3)N2c2ccc(OC)cc2)cc1 (centres unmarked) [T0500-6629] | 0.61 | 2.61 | – |
| CCN1C(=O)c2cccc3c(S(=O)(=O)Nc4ccc(OC)cc4OC)ccc1c23 [T5477696] | 0.44 | – | – |
| COc1cc(C)c(NC(=O)Cc2ccc(C)c(C)c2)cc1OC [T5783794] | 0.44 | 6.11 | – |
| Cc1c(O)ccc2c(CN(C)CC3COc4ccccc4O3)cc(=O)oc12 (centres unmarked) [T5494352] | 0.44 | – | – |
| COc1ccc(NS(=O)(=O)c2cccc(NC(=O)c3ccc[nH]3)c2)cc1 [T0517-4117] | 0.91 | 5.43 | – |
| CCc1c(C)nc2ncnn2c1NC1CCCCC1 [Z606-8352] | 0.83 | – | – |
| C1=Cc2ncnc(NCc3ccc4c(c3)OCO4)c2C1 [T5787526] | 0.71 | 3.89 | – |
| CCCCN1C(=O)C(C)(C(=O)Nc2ccc(OCC)cc2)Oc2cccnc21 (centres unmarked) [P621-1364] | 0.43 | – | – |
| CCNc1cc(C)nc(Nc2ccc(NC(=O)C3=CC=CC3)cc2)n1 [G869-0071] | 0.63 | 4.9 | – |

| Structure (SMILES) | Score Lact. | EC50 (Mus musculus, Astrocyte) [µM] | EC50 [µM] |
| --- | --- | --- | --- |
| COc1ccc(CC(=O)Nc2ccc(C)c(C)c2)cc1OC [Y030-2832] | 0.34 | – | – |
| CC(=O)Nc1cccc(NC(=O)CCc2nc(C)c(C)n2C2CCCC2)c1 [T5788339] | 0.75 | 3.9 | – |
| Cc1nc2ncnn2c(NC2CCCCCC2)c1C [Z606-8287] | 0.57 | – | – |
| Cc1cccc(NC(=O)c2ccc(S(=O)(=O)Nc3ccccc3)cc2)n1 [T6125251] | 0.51 | – | – |
| CCN(CC)C(=O)c1nc(CNC(=O)c2ccc3ccccc3n2)oc1C [T993-1787] | 0.36 | – | – |
| Cc1cccc(NC(=O)NC2CCN(c3nc4ccccc4n(C)c3=O)CC2)c1 [L932-0267] | 0.53 | 4.64 | – |
| O=S(=O)(Nc1ccc(Cl)cc1)c1ccc(F)c(Cl)c1 [T6947848] | 0.98 | – | – |
| Cc1ccc(OCCn2c(C)nc3ccccc32)cc1 [T5444083] | 0.51 | – | – |
| Cc1ccc(-c2c[nH]c(NC(=O)c3ccncc3)n2)cc1[N+](=O)[O-] [T5694329] | 0.47 | 1.59 | – |
| CC(=O)c1c(C)[nH]c(C(=O)N(C)Cc2ccc(C)cc2C)c1C [T5705522] | 0.85 | – | – |
| O=S(=O)(Nc1ccc(S(=O)(=O)C(F)F)cc1)c1ccc(Cl)cc1 [T5311200] | 0.56 | – | – |
| Cc1ccc(S(=O)(=O)Nc2ccc(F)c(F)c2F)cc1[N+](=O)[O-] [T5729557] | 0.88 | – | – |
| CC(=O)N1CC(C)(C)c2cc(S(=O)(=O)NCc3ccc(C)cc3)ccc21 [L302-0069] | 0.55 | – | – |
| Cc1nc2ncnn2c(NCc2ccco2)c1C [Z606-8298] | 0.38 | – | – |
| CCc1cc2c(NC3CCCC3)ncnc2s1 [887-0183] | 0.66 | – | – |
| Cn1nc(C(=O)Nc2ccc(Oc3ccccc3Cl)cc2)ccc1=O [T5813085] | 1.01 | – | – |
| CCOc1ccc(CN(C)CC(=O)Nc2cccc(C)c2)cc1OC [T5318833] | 0.42 | – | – |
| COc1ccccc1NC(=O)CO/N=C(/N)c1cccc(C(C)(F)F)c1 [T5770640] | 0.55 | 4.86 | – |
| CCc1cccc(NS(=O)(=O)c2ccc3c(c2)CCCN3C(C)=O)c1 [G855-0143] | 0.56 | – | – |
| CC1(C)Cc2cccc(OCC(O)CN3CCc4ccccc4C3)c2O1 (centres unmarked) [T0515-1783] | 0.59 | – | – |
| CN(C)c1ccc2ncnc(N3CCN(C(=O)c4ccc(Cl)cc4)CC3)c2c1 [M381-0730] | 0.57 | – | – |

| Structure (SMILES) | Score Lact. | EC50 (Mus musculus, Astrocyte) [µM] | EC50 [µM] |
| --- | --- | --- | --- |
| Cc1noc2ncnc(NC(C)CCc3ccccc3)c12 (centres unmarked) [E944-0182] | 0.55 | – | – |
| Cc1cccc(NS(=O)(=O)c2ccc(F)c(Cl)c2)c1 [F3394-1364] | 0.33 | – | 5.87 |
| COc1ccc(NS(=O)(=O)c2ccc(NC(=O)C3CCCO3)cc2)cc1 (centres unmarked) [T5329723] | 0.53 | – | – |
| CCCCn1c(CN(C)Cc2ccccc2)nc2c1c(=O)n(C)c(=O)n2C [T5788545] | 0.45 | – | – |
| COc1ccc(S(=O)(=O)Nc2ccc(N3CCCCS3(=O)=O)cc2)cc1F [F2794-0128] | 0.62 | – | 9.85 |
| Cc1[nH]c2nc(CNc3nc4ccccc4c(=O)n3C)[nH]c(=O)c2c1C [T0517-2783] | 0.46 | 3.84 | – |
| Cc1cc(C)cc(NC(=O)CN2CCCC2c2ccc3c(c2)OCCCO3)c1 (centres unmarked) [T5993799] | 1.14 | 8.81 | – |
| COc1ccc(-c2csc(N3C(=O)CC4CS(=O)(=O)CC43)n2)cc1 (centres unmarked) [T5832764] | 0.60 | – | 4.02 |
| CN1c2ccccc2C(=O)NC1c1ccc(Cl)c(Cl)c1 (centres unmarked) [T5389517] | 0.33 | – | – |
| CN(C)S(=O)(=O)c1cccc(C(=O)Nc2ccc(Oc3ccccc3)cc2)c1 [T5393500] | 0.59 | – | – |
| O=C(Nc1ccc(S(=O)(=O)NCC2CCCO2)cc1)c1ccccc1 (centres unmarked) [Y031-0361] | 0.43 | – | – |
| CC(=O)N1CCCc2cc(S(=O)(=O)Nc3ccc(OC(F)(F)F)cc3)ccc21 [G855-0183] | 0.54 | – | – |
| Cc1nc2ccccc2n1CCOc1ccc(Br)cc1 [T0505-4087] | 0.64 | – | – |
| CCOc1ccc(C2=CCc3c2ncn(Cc2ccncc2)c3=O)cc1OCC [L115-0403] | 0.81 | 3.28 | – |
| CCc1c(C)nc2ncnn2c1NC1CCCCCC1 [Z606-8351] | 0.42 | – | – |
| CCn1c(=O)c(C)nc2cc(C(=O)N(Cc3ccc(C)cc3)C3CC3)ccc21 [T5586091] | 0.45 | 5.36 | – |
| COc1cccc(C(CNc2nc(C(C)(C)C)nc3ccccc23)N(C)C)c1 (centres unmarked) [T5800607] | 063 | 5.87 | – |
| CC(=O)c1c(C)[nH]c(C(=O)C(C)N(C)Cc2ccc3c(c2)OCO3)c1C (centres unmarked) [T5798761] | 0.73 | – | – |
| CCc1ccccc1NC(=O)CN(C)c1nccc2c1oc1ccccc12 [T5712071] | 0.8 | 1.14 | – |
